According to patent publication US20250073354A1, “COMPOSITIONS AND METHODS FOR DELIVERY OF AGENTS TO INNER EAR” (University of Rochester, priority 2021, published 2025):
Entries after “also recorded” stand apart in the source; their conditions may differ.

Key:
[1] = mouse, in vivo
Protocol: Briefly, mice were anesthetized with a mixture of Ketamine/Xylazine (100 mg/kg, 10 mg/kg, respectively), after depth of anesthesia was confirmed by the cessation of reflexes, the incision area was properly shaved and sterilized with the aid of ethanol 70% swabs (Vitrex Medical A/S Herlev, DK), followed by iodine solution (Povidone Iodine 7,5% Henry Schein, Melville, NY, USA) applicated using cotton swabs. Before the onset of surgery, analgesics were applied, Lidocaine (0.05 ml, 0.2 mg/ml) was applied in the incision site and Buprenorphine (0.05 mg/kg) injected subcutaneously for post-surgical analgesia. After performing the skin incision around the occipital crest, the neck muscles were separated to reveal the CM underneath. […]
Immediately after the CM cannulation procedure, animals were moved to MRI scanner and head movement during scanning was minimized by restraining the animals on an MR-compatible stereotactic holder with ear bars. Body temperature was maintained at 37±0.5° C. with a thermostatically controlled waterbed and monitored, along with the respiratory rate by an MR compatible remote monitoring system (SA Instruments, NY, USA). […] Every 3D-CISS image was calculated as a maximum intensity projection from 4 realigned 3D-TrueFISP volumes with 4 orthogonal phase encoding directions (TR/TE 3.9/1.95 ms, Nex 2, FA 50°, FOV 19.2×12.8×12.8 mm, Matrix 192×128×128, BW 150 kHz). […]
Both DCE-MRI and CT time series data were motion corrected using Advanced Normalization Tools (ANTs ver.2.1.0) (Avants et al., 2008; Avants et al., 2011). Motion corrected time series in MRI images were converted into percent change from baseline-time series, calculated as the percent signal change from the averaged signal of baseline images.

[2] = CT time series of CSF tracer transport to the cochlea after intracisternal infusion; format: in vivo, mouse
Protocol: During the CM cannulation procedure a custom-made head bar was fixed on the top of the animal skull. The head bar was designed to minimize undesired movements during the image acquisition (Yoshida et al., 2016), and fixed to an animal holder. […] Animal's respiration was monitored by using Biovet software. CT scans were performed with the Vector4CT system (MILabs, Utrecht, Netherlands) and scanning of the entire mouse head was performed in 4.56 min at an isotropic spatial resolution of 20 μm. The time series CT scanning protocol comprised one baseline scan (4.5 min) followed by intracisternal infusion of Omnipaque (350 mg I/ml, 1 μL/min, 10 μL, GE healthcare). Scans continued over 6 measurements (30 min) after intracisternal infusion of Omnipaque.
The time-intensity data was extracted using ITK snap with the ROIs described above after background subtraction and then normalized to maximal cisterna magna intensity. Dimensions of cochlear aqueduct were measured using the #X feature in ITK snap for #four animals. Distances between ROIs were calculated using their spatial coordinates.
To solve the equation (#ref), inventors implemented a simple finite difference scheme in Python (#ref) using NumPy and Scipy (#ref). Estimation of the dispersion coefficient was achieved by minimizing the L2-norm prediction error, using Scipy (#ref) E: […]

SMILES: O=C([O-])CN1CCN(CC(=O)[O-])CCN([C@H](CO)[C@H](O)CO)CCN(CC(=O)[O-])CC1.[Gd+3] (racemic) [Gadovist, gadobutrol]
- Time activity curves for tracer influx in mice lacking aqp4 [1]: did not differ from wild type animals
- Time to reach 50 max [1]: significantly higher in the cochlea
- Tracer distribution to cochlea [1]: reaches the cochlea

SMILES: CC(=O)N(CC(O)CO)c1c(I)c(C(=O)NCC(O)CO)c(I)c(C(=O)NCC(O)CO)c1I (centres unmarked) [Omnipaque]
- Tracer concentration in scala vestibuli or cochlear nerve ([2]; during the 30 min of scanning): No clear rise; also recorded: no significant tracer arrives
- Tracer distribution to scala tympani ([2]; intracisternal delivery, continuous CT scanning): reaches the base and middle region of the scala tympani
